According to patent US20100160391A1, “Substituted Aminopyridines as Fluorescent Reporters for Amide Hydrolases” (priority 2006, published 2010):
Marks after values point to notes of the source that are not given here.

How the values were obtained:
[1] = molecular target: T1, microsomal fatty acid amide hydrolase (FAAH) (Homo sapiens, UniProt O00519); assay: Lowest detection limits of microsomal FAAH toward colorimetric and fluorescent substrates; assay type: biochemical; details: for base line, Average: 0 min; for signal, Average: 10 min
T1 construct: made in house; host or cells: Trichoplusia ni High Five cells infected with recombinant baculovirus Ac-hFAAH; microsomal fraction
T1 sequence (O00519 1-579): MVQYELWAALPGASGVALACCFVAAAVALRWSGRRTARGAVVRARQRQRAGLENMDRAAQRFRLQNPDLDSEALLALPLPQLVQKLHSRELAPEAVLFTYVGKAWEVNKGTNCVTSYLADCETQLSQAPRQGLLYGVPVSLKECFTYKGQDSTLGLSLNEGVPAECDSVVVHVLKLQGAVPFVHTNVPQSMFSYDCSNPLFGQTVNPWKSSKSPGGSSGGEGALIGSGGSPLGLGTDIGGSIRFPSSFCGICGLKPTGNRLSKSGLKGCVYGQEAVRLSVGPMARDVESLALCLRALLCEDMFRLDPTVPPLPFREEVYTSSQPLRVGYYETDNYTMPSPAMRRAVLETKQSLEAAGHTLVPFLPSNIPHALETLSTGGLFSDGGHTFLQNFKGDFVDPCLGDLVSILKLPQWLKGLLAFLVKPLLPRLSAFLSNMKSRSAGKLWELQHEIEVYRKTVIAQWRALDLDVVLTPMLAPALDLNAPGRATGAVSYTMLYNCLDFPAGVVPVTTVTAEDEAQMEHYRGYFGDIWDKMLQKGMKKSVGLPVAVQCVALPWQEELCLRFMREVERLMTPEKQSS
Protocol: (§1) Preparation of recombinant human FAAH. Transgenic expression of the human FAAH in a baculovirus system was performed by following the method described in Nishi et al., Arch. Biochem. Biophys., 445:115-123 (2006). The cDNA encoding human FAAH (GenBank Accession No. NM_001441) was amplified by PCR using a human liver cDNA library (Invitrogen; Carlsbad, Calif.) as a template. The primer pair was 5′-[…]-3′ and 5′-[…]-3′. BglII and EcoRI endonuclease sites (underlined) were incorporated just upstream of the start codon and downstream of the stop codon of the coding sequence of FAAH, respectively. The PCR products were cloned into a pCR2.1 vector (Invitrogen) and the nucleotide sequence was verified by DNA sequencing. The cDNA fragments were then excised and directionally ligated to the BglII and EcoRI sites of the baculovirus transfer vector pAcUW21 (Lopez-Ferber et al., Baculovirus transfer vectors, in “Baculovirus Expression Protocols,” Richardson (Ed.), pp 25-63, Humana Press, Totowa, N.J., 1995). Recombinant baculoviruses harboring the human FAAH gene, Ac-hFAAH, were generated by co-transfection of Spodoptera frugiperda-derived Sf21 cells with the recombinant transfer vector plasmid and Bsu36I-cleaved BacPAK6 viral DNA (Clontech Laboratories; Mountain View, Calif.) as described in O'Reilly et al., Baculovirus Expression Vectors: A Laboratory Manual, Oxford University Press, New York, 1992. Trichoplusia ni-derived High Five cells (1×10^6 cells/ml) were inoculated with a high titer of Ac-hFAAH. At 72 hours post-infection, the infected cells were harvested by centrifugation at 2,000×g for 20 min at 4° C. and suspended in 50 mM Tris-HCl (pH 8.0) containing 150 mM NaCl, 1 mM EDTA, 1 μM pepstatin, 100 μM leupeptin, and 0.1 mg/ml aprotinin. The cell suspension was then homogenized using a Polytron homogenizer and centrifuged at 10,000×g for 20 min at 4° C. The microsomal fraction was collected by ultracentrifugation of the supernatant at 100,000×g for 60 min at 4° C. The pellet was resuspended in 20 mM Tris-HCl (pH 8.0) containing 10% (w/v) glycerol and 1% (w/v) Triton-X 100 and stored at −80° C. until use.
(§2) Comparison of the lowest detection limits of protein concentration of FAAH toward colorimetric and fluorescent substrates. In general, all assays were performed in 96-well styrene flat-bottom microtiter plates with a Spectra Max M2 spectrophotometer at 37° C. for […]. The total volume of each well was 201 μl consisting of 0.1 M sodium phosphate buffer (pH 8.0) (190 μl) containing 1% glycerol and 0.1% Triton-X 100, stock or diluted protein solution (10 μl), and the substrate solution (1 μl) in ethanol (final concentration 200 μM for 10, 11, 13 or 14) or in DMSO (final concentration 25 μM for 12, 15, or 16; 50 μM for 17). The lowest detection limits of microsomal fatty acid amide hydrolase (FAAH) by substrates were determined by the fact that the signal at 10 min after kinetic measurements are equal to or over three times the noise or basal line at 0 min. Colorimetric substrate (16) assays were performed in clear 96-well microtititer plates using an absorbance wavelength at 382 nm. The fluorescent substrates containing 5-amino-2-methoxypyridine (e.g., 10, 13) were measured at an excitation wavelength (302 nm), emission wavelength (396 nm), and auto cutoff wavelength (325 nm). Similarly, the fluorescent substrates containing 5-amino-2-methoxy-6-methylpyridine (e.g., 11, 14, and 17) were measured at an excitation wavelength (304 nm), emission wavelength (392 nm), and an auto cutoff wavelength of 325 nm. In addition, an excitation wavelength (366 nm), emission wavelength (496 nm), and auto cutoff wavelength (495 nm) were used for the substrates (e.g., 12 and 15) containing 7-amino-4-trifluoromethyl coumarin.

[2] = molecular target: T2, human FAAH, microsomes from FAAH cells (Homo sapiens, UniProt O00519); assay: Specific activity, microsomes from FAAH cells; assay type: biochemical
T2 construct: made in house; host or cells: Trichoplusia ni High Five cells infected with recombinant baculovirus Ac-hFAAH; microsomal fraction
T2 sequence (O00519 1-579): T1 sequence (O00519 1-579)
Protocol: as §1, §2
Specific activity determination. The assays for specific activities were performed as described above for the sensitivity assay. […]

[3] = molecular target: T3, fatty acid amide hydrolase (FAAH) (Homo sapiens, UniProt O00519); assay: Kinetic study of FAAH toward substrates; assay type: biochemical
T3 construct: made in house; host or cells: Trichoplusia ni High Five cells infected with recombinant baculovirus Ac-hFAAH; microsomal fraction
T3 sequence (O00519 1-579): T1 sequence (O00519 1-579)
Protocol: as §1
Kinetic study. The kinetic assays were also performed as described above for the sensitivity assay. Briefly, a total volume of 201 μl contained 0.1 M sodium phosphate buffer (pH 8.0) (190 μl) with 1% glycerol and 0.1% Triton-X 100, protein solution (10 μl), and substrate solution (1 μl). The protein content was 0.67 μg per well (201 μl). The concentration of substrate (13) in DMSO was 200, 100, 50, 25, 12.5, 6.25, 3.13, 1.56, or 0.78 μM. Similarly, the concentration of substrate (17) in DMSO was 100, 50, 25, 12.5, 6.25, 3.13, 1.56, 0.78, or 0.39 μM. Four replicates were applied for each concentration. Reported kinetic data (km and Vmax) were analyzed by the SigmaPlot Enzyme Kinetics software (2001) using the Michaelis-Menten equation for all concentrations.

[4] = system: amidases, microsomes from High Five cells; assay: Specific activity, microsomes from High Five cells; details: pH 8.0, 37° C.; NM = not measurable at the same protein concentration as other substrates
Protocol: Preparation of recombinant human FAAH. Transgenic expression of the human FAAH in a baculovirus system was performed by following the method described in Nishi et al., Arch. […] The cDNA encoding human FAAH (GenBank Accession No. NM—001441) was amplified by PCR using a human liver cDNA library (Invitrogen; Carlsbad, Calif.) as a template. The primer pair was 5′-[sequence]-3′ and 5′-[sequence]-3′. BglII and EcoRI endonuclease sites (underlined) were incorporated just upstream of the start codon and downstream of the stop codon of the coding sequence of FAAH, respectively. The PCR products were cloned into a pCR2.1 vector (Invitrogen) and the nucleotide sequence was verified by DNA sequencing. The cDNA fragments were then excised and directionally ligated to the BglII and EcoRI sites of the baculovirus transfer vector pAcUW21 (Lopez-Ferber et al., Baculovirus transfer vectors, in “Baculovirus Expression Protocols,” Richardson (Ed.), pp 25-63, Humana Press, Totowa, N.J., 1995). Recombinant baculoviruses harboring the human FAAH gene, Ac-hFAAH, were generated by co-transfection of Spodoptera frugiperda-derived Sf21 cells with the recombinant transfer vector plasmid and Bsu36I-cleaved BacPAK6 viral DNA (Clontech Laboratories; Mountain View, Calif.) as described in O'Reilly et al., Baculovirus Expression Vectors: A Laboratory Manual, Oxford University Press, New York, 1992. Trichoplusia ni-derived High Five cells (1×10^6 cells/ml) were inoculated with a high titer of Ac-hFAAH. At 72 hours post-infection, the infected cells were harvested by centrifugation at 2,000×g for 20 min at 4° C. and suspended in 50 mM Tris-HCl (pH 8.0) containing 150 mM NaCl, 1 mM EDTA, 1 μM pepstatin, 100 μM leupeptin, and 0.1 mg/ml aprotinin. The cell suspension was then homogenized using a Polytron homogenizer and centrifuged at 10,000×g for 20 min at 4° C. […]
Comparison of the lowest detection limits of protein concentration of FAAH toward colorimetric and fluorescent substrates. […] The lowest detection limits of microsomal fatty acid amide hydrolase (FAAH) by substrates were determined by the fact that the signal at 10 min after kinetic measurements are equal to or over three times the noise or basal line at 0 min. Colorimetric substrate (16) assays were performed in clear 96-well microtititer plates using an absorbance wavelength at 382 nm. The fluorescent substrates containing 5-amino-2-methoxypyridine (e.g., 10, 13) were measured at an excitation wavelength (302 nm), emission wavelength (396 nm), and auto cutoff wavelength (325 nm). Similarly, the fluorescent substrates containing 5-amino-2-methoxy-6-methylpyridine (e.g., 11, 14, and 17) were measured at an excitation wavelength (304 nm), emission wavelength (392 nm), and an auto cutoff wavelength of 325 nm. […]

[5] = protein 0.11 (13), 0.67 (14), 100 (15), 0.5 (17) μg/well, 200 μM (13),(14), 25 μM (15), 50 μM (17)
[6] = FAAH sensitivity assay, Table 2
[7] = pH 8.0, 37° C., 0.67 μg protein per well, Michaelis-Menten
[8] = absorbance 382 nm, protein 100 μg/well, 25 μM

CCCCCCCC(=O)Nc1ccc2c(C(F)(F)F)cc(=O)oc2c1 [Compound 15, N-(4-(trifluoromethyl)-2-oxo-2H-chromen-7-yl) octanamide]
melting point: 136.6 to 137.1 °C
base line, Average [1, 5]: 132 RFU
signal, Average [1, 5]: 161 RFU
times less sensitive than substrate (13) [1, 6]: at least 900 times
times less sensitive than substrate (14) [1, 6]: ≥ 150 times

CCCCC/C=C\C/C=C\C/C=C\C/C=C\CCCC(=O)Nc1ccc(OC)nc1 [Compound 17]
enhancement of activity, microsomes from FAAH-expressing cells compared with High Five cells [2]: 4180 times
Specific activity, Microsomes from FAAH cells ([2]; pH 8): 23.5 ± 0.7 nmol/min/mg protein
Selectivity ratio ([3]; Vmax/Km of substrate over that of oleamide (5.5 × 10^−2)): 54.5
Km [3, 7]: 12.5 µM
Vmax [3, 7]: 36.7 nmol/min/mg
Specific activity, Microsomes from High Five cells [4]: 5.62 ± 0.67 pmol/min/mg protein
base line, Average [1, 5]: 148 RFU
signal, Average [1, 5]: 559* RFU
Protein, lowest detection limit of microsomal FAAH (signal at 10 min ≥ three times base line) ([1]; pH 8): 0.5 μg/200 μ′
lowest detection limit of protein ([1]; signal at 10 min equal to three times base line): 2.5 μg protein/ml

CCCCCCCC(=O)Nc1ccc([N+](=O)[O-])cc1 [Compound 16, N-(4-nitrophenyl) octanamide]
melting point: 80.9 to 81.6 °C
base line, Average [1, 8]: 0.16 OD
signal, Average [1, 8]: 0.18 OD

COc1ccc(NC(C)=O)cn1 [Compound 10, N-(6-methoxypyridin-3-yl) acetamide]
Specific activity, Microsomes from High Five cells [4]: 56 ± 2 pmol/min/mg protein
